In patent publication EP0885186B1, “AMINO ACID DERIVATIVES, PHARMACEUTICAL COMPOSITIONS CONTAINING THESE COMPOUNDS AND PROCESSES FOR PREPARING THEM” (Dr. Karl Thomae GmbH, priority 1995, dated 1997):
One block for each compound: values may come before it.

Legend:
[1] = tested on: NPY-induced blood pressure effects; assay: In vivo NPY-antagonism, pithed rats, NPY-induced increase in diastolic blood pressure; conditions: test substance injected 1 min before NPY 10 µg/kg i.v.
Procedure: C. In vivo NPY-antagonism
Male rats of normal blood pressure (Chbb:THOM, 300 to 350 g) are anaesthetised with sodium hexobarbital (150 mg/kg, i.p.). After intubation of the trachea the animals are pithed by introducing a blunt needle through the eye into the spinal bone marrow channel. The animals are ventilated with oxygen-rich ambient air using a respiratory pump (20 strokes/minute). A cannula is inserted in the left carotid artery and the arterial blood pressure is measured using a pressure gauge (Braun Melsungen Combitrans) connected to a recording device. For injection purposes a catheter is placed in the left jugular vein through which heparin is administered (200 IU/kg, i.v.). After the blood pressure has been stabilised, the animals are given 2 bolus injections of NPY (10 µg/kg, i.v.) at intervals of 15 minutes. The average increase in diastolic blood pressure is taken as the reference value (= 100%). The test substances are injected in increasing doses (4 to 6 doses) at intervals of 15 minutes. One minute after administration of the test substance, NPY is administered.
The antagonistic effect of the test substances is determined by plotting the percentage inhibition of the NPY-induced blood pressure effects against the logarithm of the concentration of active substance.

NPY-Y1 receptor = molecular target: T1, NPY-Y1 receptor (Homo sapiens, UniProt P25929); assay: Studies of binding with SK-N-MC cells, displacement of [125I]-Bolton-Hunter-NPY; conditions: inhibition of specific binding of [125I]-Bolton-Hunter-NPY, 3 hours at ambient temperature
T1 construct: endogenous in cells; host or cells: SK-N-MC cells (whole cells in suspension)
T1 sequence (P25929 1-384): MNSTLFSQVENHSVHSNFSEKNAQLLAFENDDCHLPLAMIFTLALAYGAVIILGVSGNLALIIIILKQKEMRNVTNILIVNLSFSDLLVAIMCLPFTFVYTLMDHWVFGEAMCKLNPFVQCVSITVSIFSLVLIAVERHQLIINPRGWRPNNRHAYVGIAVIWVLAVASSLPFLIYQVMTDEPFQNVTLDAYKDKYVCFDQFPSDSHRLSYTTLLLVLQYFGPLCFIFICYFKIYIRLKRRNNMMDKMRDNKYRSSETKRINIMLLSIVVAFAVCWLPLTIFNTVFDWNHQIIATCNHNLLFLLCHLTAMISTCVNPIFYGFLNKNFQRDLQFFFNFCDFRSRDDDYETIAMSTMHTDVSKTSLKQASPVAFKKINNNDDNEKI
Procedure: A. Studies of binding with SK-N-MC cells (expressing the human Y1-receptor)
The cells are detached using a mixture of 0.02% EDTA in PBS and resuspended in 10 ml of incubation medium (MEM/25 mM Hepes + 0.5% BSA, 50 µM PMSF, 0.1% bacitracin, 3.75 mM CaCl2) per 40 million cells approx. After 5 minutes' centrifuging (150 x g) the pellet is resuspended in the same volume and, after a further washing step in 10 ml of incubation medium, counted and diluted to 1.25 million cells/ml. Then 200 µl of a suspension of 1.25 million cells/ml is incubated for 3 hours at ambient temperature with 25 µl of a 300 pM solution of [^125I]-Bolton-Hunter-NPY and increasing concentrations (10^-11 to 10^-6 M) of the test substances, whilst maintaining a total volume of 250 µl. Incubation is ended by centrifuging (10 minutes at 3000 x g and 4°C). After washing once with PBS, the radioactivity of the pellet is measured in a gamma counter. The radioactivity thus obtained represents the sum of specific and non-specific binding of [^125I]-Bolton-Hunter-NPY. The proportion of non-specific binding is defined as that radioactivity which is bound in the presence of 1 µM NPY. The IC50 values of the unlabelled test substances are determined graphically. They represent the concentration of the test substance in question at which the specific binding of[^125I]-Bolton-Hunter-NPY to the NPY-Y1 receptor is inhibited by 50%.

NPY activity = assay: NPY-antagonism in vitro, isolated perfused rat kidney, NPY-induced perfusion pressure increase; parameters: species or system rats; conditions: inhibition of pressure increase by NPY (1µM) bolus
Procedure: B. NPY-antagonism in vitro
Male rats (CHbb: THOM, 300 to 350 g) are given heparin (100 IU, i.v.) and the animals are then killed by a blow to the back of the neck. The abdomen is opened along the centre of the body and the left kidney is removed after the insertion of catheters in the renal artery, renal vein and ureter. The isolated kidney is immediately perfused with a modified Krebs-Ringer solution having the following composition (4 ml/minute):
A mixture of 95% O2/5% CO2 is passed through the solution which is kept at a temperature of 37°C. The perfusion pressure is measured continuously using a pressure gauge. After a 60 minute stabilisation period the perfusion rate is adjusted so as to obtain a perfusion pressure of approximately 100 mm Hg. After a further 30 minutes the experiment is started and NPY (1µM) is administered as a bolus (0.1 ml) at 15 minute intervals until the pressure increase observed reaches a constant value. The compounds to be tested are given in the form of a continuous infusion over a period of 5 minutes and then NPY is injected. After a 30 minute wash-out period the next highest concentration of test substance is investigated. 3 to 5 different concentrations of the particular compound are tested on each occasion. […]

NPY-induced food intake = assay: Food intake in satiated rats after NPY application to the paraventricular nucleus; type: in vivo; conditions: for Food intake following NPY application: 2 h intake, satiated rats; for % Inhibition of food intake: versus vehicle + NPY
Procedure: D. In vivo Studies in rats: Food intake in satiated rats
For these determinations food intake was measured in normal satiated rats after application of NPY to the paraventricular nucleus (PVN) in the presence or absence of the test compound. Male Chbb: Thom rats weighing between 300 and 350 g were used for all experiments. The rats were individually housed in stainless steel cages where water and food were available ad libitum.
Rats under Pentobarbital anaesthesia were stereotactically implanted with a stainless steel double guide cannula targeted bilaterally at the PVNs. Stereotactic coordinates were: -1.8mm caudal, 0.5mm lateral to bregma and 7.0mm below the skull surface. Injection cannulae extended the guide cannulae by 1 mm. Animals were allowed to recover from surgery for at least 10 days before being used in the experiments. Rats were handled and mock-injected during the one-week recovery period to habituate them to the injection procedure.
Animals treated with both test compounds and NPY were treated first with the test compound. Then, 15 min. after PVN infusion of the test compound or vehicle (control) 1 µg of NPY was administered by PVN infusion.
Food intake was measured by placing preweighed pellets into the cages at the time of NPY injection. Pellets were removed from the cage at 2 h post NPY injection. The food intake of animals treated with test compound was calculated as a percentage of the food intake of control animals, i.e., animals treated with vehicle.

food-deprived rats = assay: Food intake in food-deprived rats; type: in vivo; conditions: 24 hour food deprived rats, 15 µg, bilaterally, into PVN
Procedure: Food intake in food-deprived rats
Food-deprivation experiments were conducted with male Chbb:Thom rats weighing between 300 and 350 g. The animals were individually housed for the duration of the study and allowed free access to normal food together with tap water. Food was removed from the animals for 24 hours starting at 8:00 a.m. At the end of the fasting period compound or vehicle was administered to the animals by infusion into the PVN. Food was returned to the animals and their food intake monitored at various time periods during the following 24 hour period. The food intake of animals treated with test compound was calculated as a percentage of the food intake of control animals (i.e., animals treated with vehicle).

Compound: CN(CCCC(NC(=O)C(c1ccccc1)c1ccccc1)C(=O)NCc1ccc(O)cc1)C(=N)N (racemic) [(B), (R,S)-N^5-(aminoiminomethyl)-N^2-(diphenylacetyl)-N-[(4-hydroxyphenyl)methyl]-N^5-methyl-ornithinamide]
pID50 [1]: 7.87 mol/kg | IC50 (NPY-Y1 receptor): 0.62 nM | pIC50 (NPY activity): 8.41 mol/l

Compound: N=C(N)NCCC[C@@H](NC(=O)C(c1ccccc1)c1ccccc1)C(=O)NCc1ccc(CNC(N)=O)cc1 [(A), (R)-N-[[4-(aminocarbonylaminomethyl)phenyl]methyl]-N^2-(diphenylacetyl)-argininamide]
Food intake following NPY application (NPY-induced food intake; 15 µg of compound by PVN infusion 15 min before 1 µg NPY): 2.62 g/animal | % Inhibition of food intake (NPY-induced food intake; 15 µg of compound by PVN infusion): 25.9% | Food intake following NPY application (NPY-induced food intake; 30 µg of compound by PVN infusion 15 min before 1 µg NPY): 1.67 g/animal | % Inhibition of food intake (NPY-induced food intake; 30 µg of compound by PVN infusion): 52.8% | Food intake following NPY application (NPY-induced food intake; 60 µg of compound by PVN infusion 15 min before 1 µg NPY): 1.07 g/animal | % Inhibition of food intake (NPY-induced food intake; 60 µg of compound by PVN infusion): 69.8% | pID50 [1]: 8.11 mol/kg | pIC50 (NPY activity): 8.12 mol/l | duration of significant reduction in food intake (food-deprived rats): at least 4 h

Compound: N=C(N)NCCC[C@@H](NC(=O)C(c1ccccc1)c1ccccc1)C(=O)NCc1ccc(CC(N)=O)cc1 [(C), (R)-N-[[4-(aminocarbonylmethyl)phenyl]methyl]-N^2-(diphenylacetyl)-argininamide]
IC50 (NPY-Y1 receptor): 0.63 nM

Compound: N=C(N)NCCC[C@@H](NC(=O)C(c1ccc(Cl)cc1)c1ccc(Cl)cc1)C(=O)NCc1ccc(CNC(N)=O)cc1 [(F), (R)-N-[[4-(aminocarbonylaminomethyl)phenyl]methyl]-N^2-[bis-(4-chlorophenyl)-acetyl]-argininamide]
IC50 (NPY-Y1 receptor): 0.35 nM

Compound: N=C(N)NCCC[C@@H](NC(=O)C(c1ccc(O)cc1)c1ccc(O)cc1)C(=O)NCc1ccc(CNC(N)=O)cc1 [(G), (R)-N-[[4-(aminocarbonylaminomethyl)phenyl]methyl]-N^2-[bis-(4-hydroxyphenyl)-acetyl]-argininamide]
IC50 (NPY-Y1 receptor): 0.17 nM

Compound: NPY: NPY, agonist applied to the paraventricular nucleus (1 µg) to elicit feeding response in satiated rats
two hour food intake (NPY-induced food intake; NPY 1µg into PVN, 0.5 g in animals injected with vehicle): 3.5 g

Now from value to compound:

IC50 (NPY-Y1 receptor): 0.75 nM
Compound: CCNC(=O)NCc1ccc(CNC(=O)[C@@H](CCCNC(=N)N)NC(=O)C(c2ccccc2)c2ccccc2)cc1 [(D), (R)-N^2-(diphenylacetyl)-N-[[4-(ethylaminocarbonylamino-methyl)phenyl]methyl]-argininamide]

IC50 (NPY-Y1 receptor): 0.4 nM
Compound: CCOC(=O)CNC(=O)NCc1ccc(CNC(=O)[C@@H](CCCNC(=N)N)NC(=O)C(c2ccccc2)c2ccccc2)cc1 [(E), (R)-N^2-(diphenylacetyl)-N-[[4-(ethoxycarbonylmethylamino-carbonylaminomethyl)-phenyl)methyl]-argininamide]
